Experiments:
[1] = system: MOG35-55 mouse EAE model of MS
[2] = system: imiquimod (IMQ) mouse model of psoriasis; format: in vivo, Balb/c mice
Protocol: In the imiquimod (IMQ) mouse model of psoriasis. Balb/c mice (10 males/group) received daily topical IMQ (5% cream) on shaved back and right ear for 5 days. Animals received oral active drug (90 mg-eq MMF/kg twice daily) or vehicle from Day −5 to Day 5. Erythema score was the primary outcome measure. […] The AUCmolar-MMF-GA:AUCmolar-MMF Ratio (%) in mice dosed with active drug at 90 mg/kg was 23.6%.

CCN(CC)C(=O)COC(=O)/C=C/C(=O)OC [Active drug, (N,N-diethylcarbamoyl)methyl methyl (2E)but-2-ene-1,4-dioate]
AUCmolar-MMF-GA:AUCmolar-MMF Ratio ([1]; female, C57BL/6, mouse, in vivo, 90 mg/kg): 23.6%
EAE clinical score (Day 29 and overall AUC) compared to vehicle ([1]; oral 90 mg-eq MMF/kg twice daily on Days 3 to 29, C57BL/6 mice, 5 point scale): significant reduction
AUCmolar-MMF-GA:AUCmolar-MMF Ratio ([2]; male, Balb/c, mouse, in vivo, 90 mg/kg): 23.6%
Erythema score versus control ([2]; oral 90 mg-eq MMF/kg twice daily from Day -5 to Day 5, Balb/c mice, topical IMQ 5% cream): significant reduction
